Read-outs that look alike come from different tables or passages of the source.
Experiments:
HIV-1 mutant 190A = assay: MT-4 cell-based antiviral assay, SDM mutant; conditions: Human immunodeficiency virus 1, MT4
Method: (§1) Compound E-TMC278 was tested in a cell-based assay, using natural host cells of HIV. MT-4 cells (a cell line of human T cells) were infected with HIV-1 (wild type or mutants) and exposed to different concentrations of antiviral compound in the presence of 10% fetal calf serum. Cytotoxicity was determined in parallel with the antiviral activity so that the selectivity of the antiviral effect could be assessed. Active compounds have to penetrate the cell membrane in order to interfere with replication steps inside the cell.
(§2) After four days of incubation at 37° C., the viability of the HIV and mock-infected cells was assessed by an automated tetrazolium-based calorimetric assay. This method enabled the calculation of both the 50% inhibitory concentration for inhibition of viral cytopathicity (IC50), the IC90, and the 50% cytotoxic concentration (CC50). The ratio CC50/IC50, also called the selectivity index, is an indication of the specificity of the antiviral effect. Tested HIV strains included: Wild type (wt) HIV-1; a panel of single and double mutants, obtained by site-directed mutagenesis (SDM), and a panel of clinical isolates, selected for resistance against NNRTIs.
(§3) A limited panel of HIV-1 mutants was constructed using site-directed mutagenesis (SDM) and homologous recombination techniques. […] Nevirapine (NVP) and efavirenz (EFV) were included as controls.

HIV-1 mutant 227L = assay: MT-4 cell-based antiviral assay, SDM mutant; conditions: Human immunodeficiency virus 1, MT4
Method: as §1, §2, §3

HIV-1 mutant 181C = assay: MT-4 cell-based antiviral assay, SDM mutant
Method: as §1, §2, §3

HIV-1 mutant 227C = assay: MT-4 cell-based antiviral assay, SDM mutant
Method: as §1, §2, §3

HIV-1 mutant 138K = assay: MT-4 cell-based antiviral assay, SDM mutant; conditions: Human immunodeficiency virus 1, MT4
Method: as §1, §2, §3

HIV-1 mutant 234I = assay: MT-4 cell-based antiviral assay, SDM mutant; conditions: Human immunodeficiency virus 1, MT4
Method: as §1, §2, §3

HIV-1 mutant 101E = assay: MT-4 cell-based antiviral assay, SDM mutant; conditions: Human immunodeficiency virus 1, MT4
Method: as §1, §2, §3

[1] = test system: HIV-1 double mutant 227L + 106A; assay: MT-4 cell-based antiviral assay, SDM mutant
Method: as §1, §2, §3

HIV-1 mutant 100I = assay: MT-4 cell-based antiviral assay, SDM mutant
Method: as §1, §2, §3

[2] = test system: HIV-1 double mutant 101E + 103N; assay: MT-4 cell-based antiviral assay, SDM mutant; conditions: Human immunodeficiency virus 1, MT4, 96 h
Method: as §1, §2, §3

[3] = test system: HIV-1 double mutant 100I + 103N; assay: MT-4 cell-based antiviral assay, SDM mutant
Method: as §1, §2, §3

HIV-1 mutant 188C = assay: MT-4 cell-based antiviral assay, SDM mutant; conditions: Human immunodeficiency virus 1, MT4
Method: as §1, §2, §3

HIV-1 mutant 106A = assay: MT-4 cell-based antiviral assay, SDM mutant; conditions: Human immunodeficiency virus 1, MT4
Method: as §1, §2, §3

HIV-1 mutant 103N = assay: MT-4 cell-based antiviral assay, SDM mutant
Method: as §1, §2, §3

HIV-1 mutant 188L = assay: MT-4 cell-based antiviral assay, SDM mutant
Method: as §1, §2, §3

[4] = test system: HIV-1 double mutant 103N + 181I; assay: MT-4 cell-based antiviral assay, SDM mutant; conditions: Human immunodeficiency virus 1, MT4, 96 h
Method: as §1, §2, §3

HIV-1 mutant 225H = assay: MT-4 cell-based antiviral assay, SDM mutant; conditions: Human immunodeficiency virus 1, MT4
Method: as §1, §2, §3

HIV-1 mutant 188H = assay: MT-4 cell-based antiviral assay, SDM mutant; conditions: Human immunodeficiency virus 1, MT4
Method: as §1, §2, §3

HIV-1 mutant 179E = assay: MT-4 cell-based antiviral assay, SDM mutant; conditions: Human immunodeficiency virus 1, MT4
Method: as §1, §2, §3

HIV-1 mutant 190S = assay: MT-4 cell-based antiviral assay, SDM mutant; conditions: Human immunodeficiency virus 1, MT4
Method: as §1, §2, §3

HIV-1 mutant 179D = assay: MT-4 cell-based antiviral assay, SDM mutant; conditions: Human immunodeficiency virus 1, MT4
Method: as §1, §2, §3

HIV-1 mutant 236L = assay: MT-4 cell-based antiviral assay, SDM mutant; conditions: Human immunodeficiency virus 1, MT4
Method: as §1, §2, §3

HIV-1 wild type = assay: MT-4 cell-based antiviral assay (viral cytopathicity, tetrazolium); conditions: Human immunodeficiency virus 1, MT4
Method: as §1, §2

wild type HIV-1 = assay: Development of resistance in vitro, MT4 cells, high multiplicity of infection; type: cell-based; conditions: wild type HIV-1, >1 infectious virus per cell, all tested concentrations, total 30 days
Excerpt: Emerging virus was collected for pheno- and genotyping. Cultures without evidence of virus replication were further sub-cultivated in the presence of the same concentration of inhibitor for a total duration of 30 days (10 passages).

[5] = test system: monotropic HIV strain Ba-L; assay: MO-DC/CD4(+) T cell co-culture model of sexual HIV transmission; type: cell-based; conditions: in words
Excerpt: Immature monocyte derived dendritic cells (immMO-DC) represent a good model for interstitial dendritic cells, which are early targets during sexual HIV transmission and important initiators of the immune response. These immMO-DC were used in “in vitro” models to test the prevention of HIV infection via sexual intercourse or related intimate contact between partners.
For instance, in one model, monocyte-derived dendritic cells (MO-DC) were infected for 2-hours with the monotropic HIV strain Ba-L at a multiplicity of infection (MOI) of 10^−3. After infection, cells were washed 6 times and resuspended in 10% BCS at 400.000 cells/ml. Autologous CD4(+) T cells were purified out of the lymphocyte fraction of the same elutration as the MO-DC and used at a concentration of 2×10^6 cells/ml ((ratio MO-DC/CD4(+) T: 1/5).
A serial dilution of a compound of formula (I) (test compound) was added to the MO-DC/CD4(+) T cell co-cultures. Each experiment was done in 96-well plates, in which each cup contained 50 μl of MO-DC, 50 μl of CD4(+) T cells and 100 μl of test compound. Half of the culture medium, with test compound, was refreshed twice weekly. Supernatants were analysed in ELISA after 14 days of culture. To determine antiviral activity, the test compound concentration able to suppress 50% of the viral replication at the end of the primary cultures (EC50) was measured.

[6] = test system: HIV-1 double mutant 103N + 181C; assay: MT-4 cell-based antiviral assay, SDM mutant; conditions: Human immunodeficiency virus 1, MT4, read-out: IC50 value
Method: as §1, §2, §3

HIV-1 M184V = conditions: cited from earlier work
HIV = conditions: short course of monotherapy; cited from earlier work
[7] = test system: laboratory strain of HIV with combination of 65R, 74V, 115F and/or 184V; conditions: combination of resistance mutations; cited from earlier work
[8] = test system: wild-type or zidovudine-resistant HIV-1 strains; conditions: MT-4 cells; cited from earlier work
[9] = test system: recombinant virus expressing the K65R mutation; conditions: in vitro; cited from earlier work
[10] = test system: simian immunodeficiency virus; conditions: SIV after 5 to 15 weeks treatment, 30 mg/kg, newborn rhesus macaques; cited from earlier work
[11] = test system: clinical HIV strains expressing the M184V mutation; conditions: cited from earlier work
[12] = Human immunodeficiency virus 1, MT4
[13] = Human immunodeficiency virus 1, MT4, read-out: IC50 value

Compound: Cc1ccnc2c1NC(=O)c1cccnc1N2C1CC1 [NVP, 11-cyclopropyl-5,11-dihydro-4-methyl-6H-dipyrido-[3,2-b: 2′,3′-e][1,4]diazepin-6-one]
- IC50 (HIV-1 mutant 190A): 4.1 µM
- IC50 (HIV-1 mutant 227L): 78 nM
- IC50 (HIV-1 mutant 181C; [12]): ≥ 10000 nM
- IC50 (HIV-1 mutant 227C; [12]): 1820 nM
- IC50 (HIV-1 mutant 138K): 64 nM
- IC50 (HIV-1 mutant 234I): 45 nM
- IC50 (HIV-1 mutant 101E): 547 nM
- IC50 ([1]; Human immunodeficiency virus 1, MT4, 96 h): 10 µM
- IC50 (HIV-1 mutant 100I; [12]): 597 nM
- IC50 [2]: 7.03 µM
- IC50 ([3]; Human immunodeficiency virus 1, MT4, 96 h, 100I + 103N, MT-4 cells): 10 µM
- IC50 (HIV-1 mutant 188C): 3.76 µM
- IC50 (HIV-1 mutant 106A): 2980 nM
- IC50 (HIV-1 mutant 103N; [12]): 2880 nM
- IC50 (HIV-1 mutant 188L; [12]): 10 µM
- IC50 [4]: 10 µM
- IC50 (HIV-1 mutant 225H): 171 nM
- IC50 (HIV-1 mutant 188H): 241 nM
- IC50 (HIV-1 mutant 179E): 158 nM
- IC50 (HIV-1 mutant 190S): 10 µM
- IC50 (HIV-1 mutant 179D): 161 nM
- IC50 (HIV-1 mutant 236L): 41 nM
- IC50 (HIV-1 wild type; wild type, MT-4 cells, 10% fetal calf serum, read-out: IC50): 81 nM
- time to emergence of resistant virus (wild type HIV-1): 3 to 6 days

Compound: Cc1cc(C=CC#N)cc(C)c1Nc1ccnc(Nc2ccc(C#N)cc2)n1 [TMC278, 4-[[4-[[4-(2-cyanoethenyl)-2,6-dimethylphenyl]-amino]-2-pyrimidinyl]-amino]-benzonitrile]
- inhibition of HIV replication in MO-DC/CD4(+) T cell co-cultures [5]: potently inhibits HIV replication

Compound: Cc1cc(/C=C\C#N)cc(C)c1Nc1ccnc(Nc2ccc(C#N)cc2)n1 [Z-TMC278, (Z)-4-[[4-[[4-(2-cyanoethenyl)-2,6-dimethylphenyl]-amino]-2-pyrimidinyl]-amino]-benzonitrile]
- IC50 (HIV-1 mutant 181C; [13]): 5 nM
- IC50 [6]: 40 nM
- IC50 (HIV-1 mutant 227C; [13]): 4 nM
- IC50 [1, 13]: 0.004 µM
- IC50 (HIV-1 mutant 100I; [13]): 6.3 nM
- IC50 ([3]; Human immunodeficiency virus 1, MT4, read-out: IC50 value, Table 1, HIV RT mutation: 100I + 103N): 0.79 µM
- IC50 (HIV-1 mutant 103N; [13]): 1.6 nM
- IC50 (HIV-1 mutant 188L; [13]): 0.032 µM
- IC50 (HIV-1 wild type; Table 1, HIV RT mutation: Wild-type, read-out: IC50 value): 0.6 nM

Compound: Nc1nc(NC2CC2)c2ncn([C@H]3C=C[C@@H](CO)C3)c2n1 [abacavir]
- decrease in HIV-1 susceptibility (HIV-1 M184V): 3 fold
- average reduction in viral load (HIV): more than 1.4 log 10 RNA copies/ml
- reduction in susceptibility [7]: 10 fold
- passages until significant decrease in susceptibility [8]: eight to ten

Compound: C[C@H](Cn1cnc2c(N)ncnc21)OCP(=O)(O)O [tenofovir]
- decreased susceptibility [9]: 3 fold
- decreased susceptibility [10]: approximately 5 fold
- susceptibility in vitro [11]: wild-type or increased susceptibility
